# Measurements from patent US20230091336A1, “CANNABINOID COMPOSITIONS” (priority 2020, published 2023).
# “Also recorded” adds a separate entry of the source.
# Assays:
# [1] = test system: UUO mice; assay: Unilateral Ureteral Obstruction (UUO) mouse model of kidney fibrosis; type: in vivo; settings: for interstitial area increase in UUO kidneys: FIG. 19D; for macrophage infiltration in UUO kidneys (F4/80): FIG. 20B; for α-SMA production in UUO kidneys vs vehicle (immunostaining): FIG. 24B; for urine / water intake / body weight / kidney weight CLK / kidney weight UUO: UUO mice at day 7; for urine / water intake / kidney weight CLK / kidney weight UUO: 10 mg/kg i.p. daily; for body weight: 10 mg/kg i.p. daily day 0 to day 6, n = 5; for magnesium output in urine vs vehicle: 24 h urine, FIG. 18; for kidney weight CLK: contralateral kidney; for phosphorylated Smad3 protein in UUO kidneys (Western blotting) / α-SMA protein in UUO kidneys (Western blotting): cortical kidney tissue, FIG. 23; for collagen type I production in UUO kidneys vs vehicle / fibronectin production in UUO kidneys vs vehicle: immunostaining; for collagen type I production in UUO kidneys vs vehicle: FIG. 21B; for fibronectin production in UUO kidneys vs vehicle: FIG. 22B; for tubular dilation in UUO kidneys: number of dilated tubules per field, FIG. 19B; for kidney weight UUO: obstructed kidney; for tubule loss in UUO kidneys: total number of renal tubules per field, FIG. 19C
# Excerpt: The Unilateral Ureteral Obstruction (UUO) model is a mouse model of kidney disease that is associated with and characterized by progressive tubulointerstitial injury and fibrosis. This model can be used to identify many of the molecular and cellular events that occur in progressive kidney fibrosis. […] TRPM7 represents a promising therapeutic target in kidney fibrosis and TRPM7 inhibitors may act as anti-fibrotic pharmacological tools.
# C57BL/6 male mice (6 wks weighing 20-25 g) were used in the UUO model. Under isoflurane (3.0% for induction and 1.5% for maintenance) anesthesia, ureteral obstruction was achieved by ligating the left ureter with a 3-0 silk suture through a left lateral incision. Control and experimental groups for these experiments were created as follows:
# Group 1: Control (5 mL/kg body weight) 5% ethanol and 5% Tween80 in 0.9% NaCl
# Group 2: CBGA (10 mg/kg body weight) 2 mg/mL in 5% ethanol, 5% Tween80 and 0.9% NaCl
# Group 3: CBD (10 mg/kg body weight) 2 mg/mL in 5% ethanol, 5% Tween80 and 0.9% NaCl
# Group 4: CBGA (10 mg/kg body weight)+CBD (10 mg/kg body weight), 2 mg/mL each in 5% ethanol, 5% Tween80 and 0.9% NaCl
# Mice were injected once daily with 10 mg/kg cannabinoids (CBGA, CBD, or both) as well as vehicle control daily beginning immediately after surgery and until Day 6. Mice were euthanized at Day 7 after surgery. Obstructed kidneys (UUO) and non-obstructed contralateral kidneys (CLK) were collected and stored.
# FIGS. 19A-19D depict the protection of kidney structure following cannabinoid treatment, as observed during experiments.
# Immunohistochemical analysis. To evaluate renal fibrosis in UUO kidneys, immunoreactivities of F4/80 (macrophage marker), collagen type I, fibronectin, and α-smooth muscle actin (α-SMA) were determined using a standard biotin-streptavidin-peroxidase method. The staining-positive areas were calculated by Image J. The threshold was set to automatically compute the positive areas for each staining and the ratio of the positive areas to the whole interstitial area. Number of macrophages (FIG. 20A and FIG. 20B), collagen type I production in stained kidney tissue (FIG. 21A and FIG. 21B), and fibronectin production in stained kidney tissue (FIG. 22A and FIG. 22B) were quantified in UUO kidneys, showing that extracellular matrix production and/or deposition in kidney tissue were also affected with CBGA treatment.
# [2] = test system: SOCE in THP-1 human monocytes; assay: SOCE Fura-2 bioassay in THP-1 cells; settings: for IC50: Homo sapiens, THP-1, read-out: IC50 SOCE, purified cannabinoids
# [3] = test system: SOCE in U937 human monocytes; assay: SOCE Fura-2 bioassay in U937 cells; settings: Homo sapiens, U-937, read-out: IC50 SOCE, purified cannabinoids, U937; Table 5
# Experimental: (§1) Briefly, SOCE inhibition experiments were performed as described in Example 8, using each of the hemp extracts listed below and in Tables 6A and 6B at six concentrations each in each of the five cell types listed above to obtain dose response curves, as shown in FIGS. 11A-11SS. […] All data are averages of three independent runs±SEM. […] Hemp extracts used in FIGS. 11A-11SS are: Sour Space Candy (SSC), Hawaiian Haze (HH), Special Sauce (SS), Suver Haze (SH), White CBG (WCBG), Elektra (ELEK), Cherry Wine (CW), Lifter (LIF), Grape Soda (GS).
# [4] = test system: SOCE in Jurkat T cells; assay: SOCE Fura-2 bioassay in Jurkat cells; type: cell-based, human; settings: for effect on SOCE Ca^2+ signals, pure compounds: 10 μM, 1 μM thapsigargin, FIG. 7A, 7C; for IC50: Homo sapiens, read-out: IC50 SOCE, purified cannabinoids, Jurkat, Table 5
# [5] = test system: SOCE in HEK-293 human embryonic kidney cells; assay: SOCE Fura-2 bioassay in HEK293 cells; type: cell-based; settings: for IC50: Homo sapiens, HEK293, read-out: IC50 SOCE, purified cannabinoids, HEK-293, Table 5
# [6] = test system: SOCE in Luva human mast cells; assay: SOCE Fura-2 bioassay in Luva cells; settings: Homo sapiens, Mast cell, read-out: IC50 SOCE, purified cannabinoids, Luva; Table 5
# Experimental: as §1
# [7] = test system: SOCE in RBL-2H3 rat mast cells; assay: SOCE Fura-2 bioassay in RBL-2H3 cells; settings: Rattus norvegicus, RBL-2H3, read-out: IC50 SOCE, purified cannabinoids, RBL-2H3; Table 5
# Experimental: as §1
Structure (SMILES),interstitial area increase in UUO kidneys [1],macrophage infiltration in UUO kidneys (F4/80) [1],α-SMA production in UUO kidneys vs vehicle (immunostaining) [1],urine [1],water intake [1],body weight [1],magnesium output in urine vs vehicle ([1]; UUO mice day 7),kidney weight CLK [1],phosphorylated Smad3 protein in UUO kidneys (Western blotting) [1],α-SMA protein in UUO kidneys (Western blotting) [1],collagen type I production in UUO kidneys vs vehicle [1],fibronectin production in UUO kidneys vs vehicle [1],tubular dilation in UUO kidneys [1],kidney weight UUO [1],tubule loss in UUO kidneys [1],IC50 [2],IC50 [3],"effect on SOCE Ca^2+ signals, pure compounds [4]",IC50 [4],IC50 [5],other results
"CCCCCc1cc(O)c(C/C=C(\C)CCC=C(C)C)c(O)c1C(=O)O [CBGA, (E)-3-(3,7-dimethylocta-2,6-dien-1-yl)-2,4-dihydroxy-6-pentylbenzoic acid]",inhibited increases in interstitial area,inhibited macrophage infiltration,inhibited,1.88 ± 0.17 mL,4.7 ± 0.2 mL,21.55 ± 0.60 g,recovered,167 ± 0.7 mg,suppressed,suppressed,inhibited,inhibited,inhibited tubular dilation,163 ± 0.9^ mg,inhibited tubule loss,2210 nM,2230 nM,fully block the Ca^2+ signals,0.53 µM,3.6 µM,"kidney atrophy / loss of UUO kidney weight vs vehicle ([1]; UUO mice day 7, 10 mg/kg daily, FIG. 17B, 10 mg/kg): less kidney atrophy; also recorded: ameliorated the loss of kidney weight; recovery of body weight loss vs vehicle ([1]; UUO mice, 10 mg/kg daily, FIG. 16): faster recovery of body weight loss; inhibitory effect in immune cells compared with non-immune HEK293 cells ([5]; 10 μM, HEK293 (FIG. 8) vs immune cells): more potent; IC50 [6]: 270 nM; IC50 [7]: 5.72 µM"
"C=C(C)[C@@H]1CCC(C)=C[C@H]1c1c(O)cc(CCCCC)cc1O [CBD, (1′R,2′R)-5′-methyl-4-penlyl-2′-(prop-1-en-2-yl)-1′,2′,3′,4′-tetrahydro-[1,1′-biphenyl]-2,6-diol]",inhibited interstitial area increase,strongly inhibited macrophage infiltration,inhibited,2.01 ± 0.44 mL,4.9 ± 0.4 mL,22.08 ± 0.45 g,recovered,175 ± 0.7 mg,suppressed,suppressed,inhibit,inhibit,inhibited tubular dilation,172 ± 0.8^ mg,inhibited tubule loss,> 50000 nM,> 50000 nM,low to no effects,7.42 µM,> 50 µM,"combinatory effect when paired with 2.2 μM CBGA ([2]; THP-1, 10 μM cannabinoid + 2.2 μM CBGA, FIG. 10Z): sub-additive; combinatory effect on SOCE inhibition when paired with CBGA (isobolographic analysis) ([4]; pairs expected to inhibit 50%, FIGS. 10A-10T): Simple additive; IC50 [6]: 2530 nM; IC50 [7]: > 50 µM"
